Like-named read-outs stand apart in the source and are kept apart here.
Assays:
rhesus monkeys = assay: Rhesus monkey conflict procedure (suppressed and non-suppressed responding); assay type: in vivo; conditions: for ED50: Macaca mulatta, iv, rhesus monkeys; for Estimated anxiolytic dose / expected human oral dose: minimum recommended dose of diazepam 2 mg
Description: FIG. 3 is a plot of rates of non-suppressed and suppressed responding by rhesus monkeys trained in a conflict procedure. Monkeys were injected i.v. with cumulative doses of (S)-zopiclone. Data are mean±S.E.M. for N=4 monkeys. Points above “V” represent data following drug vehicle administration. Note that *P<0.05 vs. V (control). Experimental methodology was identical to that described by Rowlett J K et al. (2006).
“Conflict Procedure,” as used herein refers to the rhesus monkey conflict procedure reported by Rowlett et al. (Psychopharmacology (2006) 184:201-211). Antianxiety dosage determination in rhesus monkeys using the procedure set forth by Rowlett et al. is correlative with antianxiety dosages in humans. The conflict procedure is a method of determining the parameters correlating a clinically determinable effect of eszopiclone in rhesus monkeys with analogous effects in a human subject. The results of conflict procedures in rhesus monkeys are closely correlated with dosages of agents providing anxiolysis in humans. Accordingly, the conflict procedure is a method of determining whether a dosage of eszopiclone provides clinically determinable treatment or prophylaxis of anxiety in humans.
Conflict procedures in animals are used to study mechanisms underlying the anxiolytic effects of benzodiazepines (Rowlett J K et al., Psychopharmacology (2006) 184:201-211). […] The effects of each benzodiazepine in rhesus conflict procedure is to increase suppressed responding at doses lower than the doses that ultimately decrease rates of non-suppressed responding. This characteristic profile in the rhesus conflict procedure contrasts dramatically with the effects of non-benzodiazepine hypnotics zolpidem and zaleplon, and also contrasts to the effects of GABA-A ligands with subtype efficacies different from classical benzodiazepines, such as flumazenil and CL218,872 (Rowlett J K et al., 2006).
This correlation was used to estimate the therapeutic dose in humans for anxiolytic effects. The ED50 of the suppressed responding in FIG. 3 is 0.07 mg/kg i.v., indicating a 50% anxiolytic effect at that dose i.v. in the rhesus procedure. Using this ED50 in the regression analysis of Rowlett J K et al. (2006), an expected human oral dose of 0.9 mg is obtained. This dose is below the hypnotic doses (i.e., it is subsedative) used clinically in humans (1, 2, and 3 mg), further supporting the validity of the correspondence between the efficacy profiles of classical benzodiazepines and (S)-zopiclone.
The potencies of eszopiclone to alter suppressed and non-suppressed responding were estimated by calculating the dose that engendered 5% to 95% of the maximum effect (EDx, where x=5-95%). The EDx for suppressed responding was obtained by dividing rates of suppressed responding for individual monkeys by the average maximum increase in response rate (i.e., the peak effect) and multiplying the value by 100. Doses on the ascending limb of the dose-response function were used to calculate the EDx by log-linear regression analysis. The EDx for non-suppressed responding was obtained by dividing rates of non-suppressed responding for individual monkeys by the average maximum decrease in response rate (this corresponded to the highest dose tested) and multiplying by 100. The EDx values for non-suppressed responding were calculated by log-linear regression analysis. All potencies were expressed as the mean±SEM for n=4 monkeys.
A linear relationship between relative potency to induce clinical effects in humans and relative potency to increase suppressed responding or decrease non-suppressed responding in monkeys has been determined previously for 10 standard benzodiazepines (Rowlett et al., 2006). […]

[1] = tested on: healthy adult male human subjects; assay: EEG study (quantitative wake EEG) of single doses of eszopiclone versus placebo; assay type: in vivo
Description: A study was conducted to evaluate the pharmacodynamic (quantitative wake electroencephalogram (qEEG) and auditory P300 (evoked potentials (EPs)) of four doses of eszopiclone, relative to placebo, in healthy adult male human subjects. The study was single-blind, placebo-controlled, ascending, single dose. Subjects received single doses of immediate release formulations that contained 0.3 mg of eszopiclone, 0.6 mg of eszopiclone, 0.9 mg of eszopiclone or 2.0 mg of eszopiclone.
Changes in beta EEG activity are interpreted as indicating an anxiolytic effect (Ansseau et al, Neuropsychobiology 1984, 12(4):255-9; Buchsbaum et al, Biol. Psychiatry, 1985, 20(8):832-42; Macher et al, Human psychopharmacology, 1990 (eds I Hindmarch and P D Stonier), Vol 3, 10-2; Mandema and Danhof, Clin Pharmacokinet, 1992, 23(3):191-215.
In this study, statistical EEG maps were obtained comparing EEG power values for each dose of eszopiclone versus placebo. […] The dose effect is further illustrated in the graphically depicted results of FIG. 4 which follows.
Classically, delta activity in pharmaco-EEG indicates a sedative effect of the drug under study. Delta EEG activity is clearly modified when the sedative drug effect has reached a high threshold.
Conclusions regarding a possible sedative effect or a trend to impair the subject's arousal should also include analyses of a drug's effects on alpha EEG activity, which reflect decreases in subject's arousal (pro sedative effect).

[2] = Clinical study of eszopiclone in healthy volunteers: plasma concentration-time profiles after oral administration; assay type: in vivo, human; conditions: post-dose
Description: FIG. 1 is a plot of mean (S)-zopiclone plasma concentration-time profiles following oral administration of (S)-zopiclone.
A clinical study of eszopiclone in healthy volunteers was performed using art-recognized methodology.

[3] = log10 of predicted potency relative to diazepam in humans
[4] = predicted potency relative to diazepam in humans
[5] = relative potency in the monkey conflict procedure

CN1CCN(C(=O)O[C@H]2c3nccnc3C(=O)N2c2ccc(Cl)cn2)CC1 [Eszopiclone, (+)-(5S)-6-(chloropyridin-2-yl)-7-oxo-6,7-dihydro-5H-pyrrolo[3,4-b]pyrazin-5-yl 4-methyl-piperazine-1-carboxylate]
ED50 (rhesus monkeys; read-out: ED50, non-suppressed responding): 0.74 mg/kg
ED50 (rhesus monkeys; read-out: ED50, suppressed responding): 0.07 mg/kg
Estimated anxiolytic dose / expected human oral dose (rhesus monkeys; human, regression of Rowlett et al. (2006), listed as (S)-zopiclone): 0.9 mg
Estimated anxiolytic dose / expected human oral dose (rhesus monkeys; human, regression of Rowlett et al. (2006), listed as eszopiclone): Estimated anxiolytic dose for eszopiclone = 0.9 mg
Estimated sedative dose (rhesus monkeys; human, regression of Rowlett et al. (2006), maximum recommended dose of diazepam 10 mg): Estimated sedative dose for eszopiclone = 3.4 mg
Y = 0.583x − 0.175, Y (eszopiclone relative potency), non-suppressed responding (rhesus monkeys; [3]): −0.47
Y = 0.672x − 0.174, Y (eszopiclone relative potency), suppressed responding (rhesus monkeys; [3]): −0.34
10^Y, non-suppressed responding (rhesus monkeys; [4]): 0.34
10^Y, suppressed responding (rhesus monkeys; [4]): 0.46
Ratio (eszopiclone ED50 / diazepam ED50), non-suppressed responding (rhesus monkeys; [5]): 0.31
Ratio (eszopiclone ED50 / diazepam ED50), suppressed responding (rhesus monkeys; [5]): 0.64
Log10(Ratio), non-suppressed responding (rhesus monkeys; rhesus monkey, in vivo): −0.51
Log10(Ratio), suppressed responding (rhesus monkeys; rhesus monkey, in vivo): −0.19
ED5 to increase rates of suppressed responding (mean) (rhesus monkeys; x = 5 % maximum increase, N = 4 monkeys): 0.029 mg/kg, i.v.
ED10 to increase rates of suppressed responding (mean) (rhesus monkeys; x = 10 % maximum increase, N = 4 monkeys): 0.032 mg/kg, i.v.
ED15 to increase rates of suppressed responding (mean) (rhesus monkeys; x = 15 % maximum increase, N = 4 monkeys): 0.036 mg/kg, i.v.
ED20 to increase rates of suppressed responding (mean) (rhesus monkeys; x = 20 % maximum increase, N = 4 monkeys): 0.040 mg/kg, i.v.
ED25 to increase rates of suppressed responding (mean) (rhesus monkeys; x = 25 % maximum increase, N = 4 monkeys): 0.044 mg/kg, i.v.
ED30 to increase rates of suppressed responding (mean) (rhesus monkeys; x = 30 % maximum increase, N = 4 monkeys): 0.048 mg/kg, i.v.
ED35 to increase rates of suppressed responding (mean) (rhesus monkeys; x = 35 % maximum increase, N = 4 monkeys): 0.054 mg/kg, i.v.
ED40 to increase rates of suppressed responding (mean) (rhesus monkeys; x = 40 % maximum increase, N = 4 monkeys): 0.059 mg/kg, i.v.
ED45 to increase rates of suppressed responding (mean) (rhesus monkeys; x = 45 % maximum increase, N = 4 monkeys): 0.066 mg/kg, i.v.
ED50 to increase rates of suppressed responding (mean) (rhesus monkeys; x = 50 % maximum increase, N = 4 monkeys): 0.073 mg/kg, i.v.
ED55 to increase rates of suppressed responding (mean) (rhesus monkeys; x = 55 % maximum increase, N = 4 monkeys): 0.081 mg/kg, i.v.
ED60 to increase rates of suppressed responding (mean) (rhesus monkeys; x = 60 % maximum increase, N = 4 monkeys): 0.090 mg/kg, i.v.
ED65 to increase rates of suppressed responding (mean) (rhesus monkeys; x = 65 % maximum increase, N = 4 monkeys): 0.100 mg/kg, i.v.
ED70 to increase rates of suppressed responding (mean) (rhesus monkeys; x = 70 % maximum increase, N = 4 monkeys): 0.110 mg/kg, i.v.
ED75 to increase rates of suppressed responding (mean) (rhesus monkeys; x = 75 % maximum increase, N = 4 monkeys): 0.123 mg/kg, i.v.
ED80 to increase rates of suppressed responding (mean) (rhesus monkeys; x = 80 % maximum increase, N = 4 monkeys): 0.136 mg/kg, i.v.
ED85 to increase rates of suppressed responding (mean) (rhesus monkeys; x = 85 % maximum increase, N = 4 monkeys): 0.151 mg/kg, i.v.
ED90 to increase rates of suppressed responding (mean) (rhesus monkeys; x = 90 % maximum increase, N = 4 monkeys): 0.168 mg/kg, i.v.
ED95 to increase rates of suppressed responding (mean) (rhesus monkeys; x = 95 % maximum increase, N = 4 monkeys): 0.186 mg/kg, i.v.
Alpha EEG activity (arousal), change from placebo ([1]; doses below 2.0 mg): did not exhibit major effects on arousal
Alpha EEG activity (arousal), change from placebo ([1]; highest dose (2.0 mg)): induces a significant impairment in the subject's arousal and possibly a sedative effect
Delta EEG activity (sedative effect), change from placebo ([1]; highest dose (2.0 mg)): induces a significant sedative effect
Delta EEG activity (sedative effect), change from placebo ([1]; other doses (0.3, 0.6, 0.9 mg)): do not have this side effect
time of maximum mean (S)-zopiclone plasma concentrations ([2]; fasted conditions): 0.5 to 1.5 h
time of maximum mean (S)-zopiclone plasma concentrations ([2]; fed conditions): 2 to 3 h
